Reference: the NIST ThermoML archive (doi:10.1021/acs.jced.5b00612)
± gives the expanded uncertainty stated by the source.

Settings: Liquid

CCCCCCCCCCCCCC(=O)OCC [ethyl tetradecanoate]
viscosity [mPa·s]
Settings	293.15 K	313.15 K	333.15 K	353.15 K
101.3 kPa, Falling or rolling sphere viscometry	4.73 ± 0.11	2.96 ± 0.07	2.03 ± 0.05	1.48 ± 0.03
101.3 kPa, quartz crystal resonator	4.73 ± 0.11	2.96 ± 0.07	2.03 ± 0.05	1.48 ± 0.04
10000 kPa, quartz crystal resonator	5.36 ± 0.12	3.34 ± 0.08	2.3 ± 0.05	1.65 ± 0.04
20000 kPa, Falling or rolling sphere viscometry	6.1 ± 0.14	3.74 ± 0.08	2.53 ± 0.06	1.83 ± 0.04
20000 kPa, quartz crystal resonator	6.08 ± 0.14	3.71 ± 0.09	2.54 ± 0.06	1.84 ± 0.04
30000 kPa, quartz crystal resonator	6.83 ± 0.16	4.15 ± 0.1	2.82 ± 0.07	2.03 ± 0.05
40000 kPa, Falling or rolling sphere viscometry	7.68 ± 0.17	4.64 ± 0.1	3.09 ± 0.07	2.22 ± 0.05
40000 kPa, quartz crystal resonator	7.68 ± 0.18	4.63 ± 0.11	3.13 ± 0.07	2.24 ± 0.05
50000 kPa, quartz crystal resonator	–	5.1 ± 0.12	3.44 ± 0.08	2.44 ± 0.06
60000 kPa, Falling or rolling sphere viscometry	–	5.67 ± 0.13	3.73 ± 0.08	2.66 ± 0.06
60000 kPa, quartz crystal resonator	–	5.67 ± 0.13	3.76 ± 0.09	2.66 ± 0.06
70000 kPa, quartz crystal resonator	–	6.22 ± 0.14	4.08 ± 0.09	2.91 ± 0.07
80000 kPa, Falling or rolling sphere viscometry	–	6.86 ± 0.15	4.46 ± 0.1	3.16 ± 0.07
80000 kPa, quartz crystal resonator	–	6.89 ± 0.16	4.48 ± 0.1	3.14 ± 0.07
90000 kPa, quartz crystal resonator	–	7.56 ± 0.17	4.86 ± 0.11	3.41 ± 0.08
100000 kPa, Falling or rolling sphere viscometry	–	8.23 ± 0.18	5.27 ± 0.12	3.71 ± 0.08
100000 kPa, quartz crystal resonator	–	8.14 ± 0.18	5.25 ± 0.12	3.66 ± 0.08

CCCCCCCCCCCCCC(=O)OC [methyl tetradecanoate]
viscosity [mPa·s]
Settings	303.15 K	313.15 K	333.15 K	353.15 K
101.3 kPa, Falling or rolling sphere viscometry	3.51 ± 0.08	2.8 ± 0.06	1.91 ± 0.04	1.4 ± 0.03
101.3 kPa, quartz crystal resonator	3.51 ± 0.08	2.8 ± 0.07	1.91 ± 0.05	1.4 ± 0.03
10000 kPa, quartz crystal resonator	3.95 ± 0.09	3.15 ± 0.07	2.14 ± 0.05	1.57 ± 0.04
20000 kPa, Falling or rolling sphere viscometry	4.43 ± 0.1	3.5 ± 0.08	2.37 ± 0.05	1.72 ± 0.04
20000 kPa, quartz crystal resonator	4.45 ± 0.1	3.5 ± 0.08	2.37 ± 0.06	1.74 ± 0.04
30000 kPa, quartz crystal resonator	4.95 ± 0.11	3.91 ± 0.09	2.61 ± 0.06	1.92 ± 0.05
40000 kPa, Falling or rolling sphere viscometry	5.51 ± 0.12	4.31 ± 0.1	2.89 ± 0.06	2.08 ± 0.05
40000 kPa, quartz crystal resonator	5.53 ± 0.13	4.33 ± 0.1	2.88 ± 0.07	2.11 ± 0.05
50000 kPa, quartz crystal resonator	6.11 ± 0.14	4.79 ± 0.11	3.16 ± 0.07	2.29 ± 0.05
60000 kPa, Falling or rolling sphere viscometry	–	5.24 ± 0.12	3.47 ± 0.08	2.47 ± 0.05
60000 kPa, quartz crystal resonator	6.79 ± 0.16	5.26 ± 0.12	3.46 ± 0.08	2.5 ± 0.06
70000 kPa, quartz crystal resonator	–	5.74 ± 0.13	3.76 ± 0.09	2.71 ± 0.06
80000 kPa, Falling or rolling sphere viscometry	–	6.31 ± 0.14	4.11 ± 0.09	2.9 ± 0.06
80000 kPa, quartz crystal resonator	–	6.29 ± 0.14	4.08 ± 0.09	2.92 ± 0.07
90000 kPa, quartz crystal resonator	–	–	4.46 ± 0.1	3.14 ± 0.07
100000 kPa, Falling or rolling sphere viscometry	–	7.54 ± 0.17	4.82 ± 0.11	3.38 ± 0.07
100000 kPa, quartz crystal resonator	–	–	4.81 ± 0.11	3.4 ± 0.08
